Where two headings read alike, the source gives them in different places.
Legend:
[1] = tested on: brown planthoppers (Nilaparvata lugens); assay: Test method 4: foliar spray on rice seedling, brown planthopper larvae; type: in vivo; conditions: 144 h, read-out: mortality of insects
Method: (§1) Test compounds are made to a formulation according to a similar method to that described in the Formulation Example 5, and thereto is added water containing 0.03 v/v % of Shindain (registered trademark) to prepare a diluted solution containing a prescribed concentration of the test compound.
Rice (Oryza sativa) seedling (on the developmental stage of the second true leaf) is planted in a cup, and the diluted solutions are sprayed into the seedling at a ratio of 10 mL/seedling. Thereafter, twenty (20) of 3rd instar larvae of brown planthoppers (Nilaparvata lugens) are released onto the rice leaves. After 6 days, the number of the surviving insects is examined and the mortality of insects is calculated by the following equation.

[2] = tested on: cotton aphids (Aphis gossypii); assay: Test method 3: foliar spray on cucumber seedling infested with cotton aphids; conditions: read-out: mortality of insects
[3] = tested on: cotton worm (Spodoptera litura); assay: Test method 1: foliar spray on cabbage seedling, cotton worm larvae; type: in vivo; conditions: 144 h, read-out: mortality of insects
Method: The test compounds are made to a formulation according to a similar method to that described in the Formulation Example 5, and thereto is added water containing 0.03 v/v % of Shindain (registered trademark) to prepare a diluted solution containing a prescribed concentration of the test compound.
(§2) Cabbage (Brassicae oleracea) seedling (on the developmental stage of the third to fourth true leaf) is planted in a cup, and the diluted solutions are sprayed into the seedling at a ratio of 20 mL/seedling. Thereafter, ten (10) cotton worm (Spodoptera litura) at the third instar larval stage are released. After 6 days, the number of the surviving insects is counted, and the mortality of insects is calculated by the following equation.

[4] = tested on: cotton worm (Spodoptera litura); assay: Test method 2: foliar spray on cabbage seedling, cotton worm larvae; type: in vivo; conditions: 144 h, read-out: mortality of insects
Method: as §1, §2

[5] = tested on: silverleaf whiteflies (Bemisia tabaci); assay: Test method 6: foliar spray on tomato seedling with silverleaf whitefly larvae; conditions: in Solanum lycopersicum, 168 h, read-out: mortality of insects
[6] = tested on: western flower thrips (Frankliniella occidentalis); assay: Test method 5: sprayed cucumber leaf, western flower thrips larvae; type: in vivo; conditions: 144 h, read-out: mortality of insects
Method: as §1
Cucumber (Cucumber sativus) seedling (on the developmental stage of the second true leaf) is planted in a cup, and the diluted solutions are sprayed into the seedling at a ratio of 10 mL/seedling. Thereafter, the second true leaf is cut, and the cut leaf was placed in the cup, and approximately twenty (20) of larvae of western flower thrips (Frankliniella occidentalis) larvae are released onto the leaf. After 6 days, the number of the surviving insects is examined and the mortality of insects is calculated by the following equation.

[7] = tested on: northern house mosquitos (Culex pipiens pipiens); assay: Test method 8: coated container contact test, northern house mosquito female adults; type: in vivo; conditions: 24 h, read-out: mortality of insects
Method: The test compounds are dissolved with acetone containing a surfactant, and the solution was then poured into a container of 20 mL contents, and the solution was coating uniformly in the inner face of the container such that the test compound is made 10 mg/m^2, and the surfactant is made 40 mg/m^2, and the container is dried.
Five (5) of female adult of northern house mosquitos (Culex pipiens pipiens) are placed in the contained, and the contained is put the lid. After the passing of the prescribed times, the state of the northern house mosquitos are examined, and the mortality is calculated by the following equation.

[8] = 200 ppm, spray 10 mL/seedling on cucumber, cut second true leaf, larvae, after 6 days, 25° C.
[9] = 10 mg/m^2 coated on inner face of container, female adults, after one (1) day, 25° C.
[10] = 200 ppm, spray 20 mL/seedling on cabbage, third instar larvae, after 6 days, 25° C.
[11] = 200 ppm, spray 20 mL/seedling on cabbage, third instar larvae, after 6 days, 25° C. (test method 2)
[12] = 200 ppm, spray 10 mL/seedling on rice, 3rd instar larvae, after 6 days, 25° C.

Structure (SMILES)	mortality at 200 ppm [1] [%]	mortality at 200 ppm [2] [%]	mortality at 200 ppm [3] [%]	mortality at 200 ppm [4] [%]	mortality at 200 ppm [5] [%]	mortality at 200 ppm [6] [%]	mortality at 10 mg/m2 [7] [%]	mortality at 200 ppm [6, 8] [%]	mortality at 10 mg/m2 [7, 9] [%]	mortality at 200 ppm [3, 10] [%]	mortality at 200 ppm [4, 11] [%]	mortality at 200 ppm [1, 12] [%]
CC1=CC(=O)[C@@H]2[C@@H](C1)[C@]1(C)C[C@@]34OC(=O)C[C@@](C)([C@H]1C(=O)[C@@H]2CO)[C@]3(C)CCC12C[C@@H](C)C[C@H](CN14)O2 [A-1]	≥ 90	≥ 90	≥ 80	≥ 80	≥ 90							
C[C@@H]1CC(=O)[C@H]2CC(=O)[C@H]3[C@@](C)(C[C@@]45OC(=O)C[C@]3(C)[C@]4(C)CC[C@]34C[C@@H](C)C[C@H](CN35)O4)[C@@H]2C1 [A-18]	≥ 90	≥ 90	≥ 80	≥ 80		≥ 90						
CC1CC(=O)[C@@H]2[C@@H](C1)[C@]1(C)C[C@@]34OC(=O)C[C@@](C)([C@H]1C(=O)[C@@H]2C)[C@]3(C)CC[C@]12C[C@@H](C)C[C@H](CN14)O2 (stereo partly drawn) [A-19]	≥ 90	≥ 90	≥ 80	≥ 80		≥ 90	≥ 80					
CC1=CC(=O)[C@@H]2[C@@H](C1)[C@@]1(C)[C@H](C(=O)[C@@H]2C)[C@]2(C)CC(=O)O[C@@]3([C@H]1Cl)N1C[C@H]4C[C@H](C)C[C@]1(CC[C@@]23C)O4 [AA-2]	≥ 90	≥ 90	≥ 80	≥ 80	≥ 90	≥ 90	≥ 80					
CC[C@H]1C(=O)[C@H]2[C@@](C)(C[C@@]34OC(=O)C[C@]2(C)[C@]3(C)CC[C@]23C[C@@H](C)C[C@H](CN24)O3)[C@@H]2CC(C)=CC(=O)[C@H]21 [AA-3]	≥ 90	≥ 90	≥ 80	≥ 80	≥ 90		≥ 80					
Cc1cc(O)c2c(c1)[C@]1(C)C[C@@]34OC(=O)C[C@@](C)([C@H]1C(=O)[C@@H]2C)[C@]3(C)CC[C@@]12C[C@@H](C)C[C@H](CN14)O2 [B-1]		≥ 90	≥ 80	≥ 80		≥ 90	≥ 80					
Cc1cc(O)c2c(c1)[C@]1(C)C[C@@]34OC(=O)C[C@@](C)([C@H]1C(=O)C2)[C@]3(C)CC[C@]12C[C@@H](C)C[C@H](CN14)O2 [B-2]	≥ 90	≥ 90	≥ 80	≥ 80			≥ 80					
CC(=O)Oc1cc(C)cc2c1CC(=O)[C@H]1[C@@]2(C)C[C@@]23OC(=O)C[C@]1(C)[C@]2(C)CC[C@]12C[C@@H](C)C[C@H](CN13)O2 [BB-1]		≥ 90						≥ 90	≥ 80	≥ 80	≥ 80	
COC(=O)C[C@@]1(C)[C@H]2C(=O)C[C@@H]3C(=O)C=C(C)C[C@H]3[C@]2(C)C=C2N3C[C@H]4C[C@H](C)C[C@]3(CC[C@]21C)O4 [E-1]	≥ 90	≥ 90		≥ 80	≥ 90	≥ 90	≥ 80					
COC(=O)C[C@@]1(C)[C@H]2C(=O)CC3C(=O)CC(C)CC3[C@]2(C)C=C2N3C[C@H]4C[C@H](C)C[C@]3(CC[C@]21C)O4 (stereo partly drawn) [EE-1]		≥ 90			≥ 90			≥ 90	≥ 80			
CC1CC(=O)C2CC(=O)[C@H]3[C@@](C)(CC4=[N+]5C[C@H]6C[C@H](C)C[C@]5(CC[C@@]4(C)[C@@]3(C)CC(=O)O)O6)C2C1 (stereo partly drawn) [EE-2]	≥ 90	≥ 90	≥ 80	≥ 80	≥ 90	≥ 90	≥ 80					
CC1=CC(=O)[C@@H]2[C@@H](C1)[C@]1(C)C[C@H]3N4C[C@H]5C[C@H](C)C[C@]4(CC[C@@]3(C)[C@@](C)(CC(=O)O)[C@H]1C(=O)[C@@H]2C)O5 [EE-3]		≥ 90						≥ 90	≥ 80	≥ 80		≥ 90
COC(=O)C[C@@]1(C)[C@H]2C(=O)[C@H](C)[C@@H]3C(=O)C=C(C)C[C@H]3[C@]2(C)C=C2N3C[C@H]4C[C@H](C)C[C@]3(CC[C@]21C)O4 [EE-4]								≥ 90	≥ 80		≥ 80	≥ 90
COC(=O)C[C@@]1(C)[C@H]2C(=O)[C@H](C)[C@@H]3C(=O)C=C(C)C[C@H]3[C@]2(C)C[C@H]2N3C[C@H]4C[C@H](C)C[C@]3(CC[C@]21C)O4 [EE-5]	≥ 90	≥ 90	≥ 80	≥ 80		≥ 90	≥ 80					
CC1CC(O)C2CC(=O)[C@H]3[C@@](C)(CC4N5C[C@H]6C[C@H](C)C[C@]5(CC[C@@]4(C)[C@@]3(C)CC(=O)O)O6)C2C1 (stereo partly drawn) [EE-6]								≥ 90	≥ 80		≥ 80	
CC1CC(O)[C@H]2CC(=O)[C@H]3[C@@](C)(CC4N5C[C@H](O)C[C@H](C)CC5CC[C@@]4(C)[C@@]3(C)CC(=O)O)[C@@H]2C1 (stereo partly drawn) [GG-1]	≥ 90						≥ 80					
COC(=O)C[C@@]1(C)[C@H]2C(=O)C[C@@H]3C(=O)CC(C)C[C@H]3[C@]2(C)CC2N3C[C@H](O)C[C@H](C)CC3CC[C@]21C (stereo partly drawn) [GG-2]							≥ 80					
CC1=CC(=O)[C@@H]2[C@@H](C1)[C@]1(C)CC3N4C[C@H](O)C[C@H](C)C[C@@H]4CC[C@@]3(C)[C@@](C)(CC(=O)O)[C@H]1C(=O)[C@@H]2C (stereo partly drawn) [GG-3]	≥ 90	≥ 90	≥ 80			≥ 90	≥ 80					
